From patent US6812235B2, “Beta-alanine derivatives and their use as receptor anatgonists” (Fujisawa Pharmaceutical Co., Ltd., priority 2000, dated 2004)

Tested on: platelet aggregation induced by ADP in platelet rich plasma (PRP)
Assay: Effect on platelet aggregation induced by adenosine diphosphate (ADP)
Type: cell-based
Settings: human PRP 3×10^8 platelets/ml; test compound in water, 2 minutes at 37° C.; ADP final 2.5 μM; aggregometer; read-out: IC50 (inhibition of ADP-induced platelet aggregation)
Protocol: Test: Effect on Platelet Aggregation Induced by Adenosine Diphosphate (ADP)
Platelet rich plasma (PRP) which contains 3×10^8 platelets/ml was prepared from human blood. To the 225 μl of PRP, 25 μl of the solution of the test compound in water was added, and then stirred for 2 minutes at 37° C. To the solution 5 μl of ADP (final 2.5 μM) was added as an aggregation inducer. Aggregation was measured by using an aggregometor (NBS HEMA-TRACER 801). Activity of […] (test compound) was expressed as IC50 value, i.e., dose required for […] of platelet aggregation.

COC(=O)C(=O)N[C@@H](CNC(=O)[C@@H]1CCCN(C(=O)CCC2CCNCC2)C1)C(=O)O [Example 25, N-[(3R)-1-{3-(4-piperidyl)-propionyl}-3-piperidylcarbonyl]-2(S)-methoxyoxalylamino-β-alanine]
IC50: 85 nM
